Columns and labels:
[1] = biological target: T1, BACE1 (Homo sapiens, UniProt P56817); assay: In vitro BACE1 FRET enzyme assay; format: biochemical; conditions: BACE1 FRET assay; for inhibition at 10 µM: 10 μM compound, read-out: Inhibition Rate at 10 μM (%)
T1 construct: purchased PanVera Co. (Invitrogen, USA)
Protocol: The BACE1 FRET assay kit was purchased from the PanVera Co. (Invitrogen, USA). The assay was carried out according to the supplied manual with modifications. […] The fluorescence intensity was measured with a TECAN infinite 200 microplate reader for 60 min at 25 °C in the dark. […] The percent inhibition (%) was obtained by the following equation: Inhibition % = (1 −SS/SC) × 100%, where SC is the slope of fluorescence change of the control (enzyme, buffer, and substrate) during 60 min, and SS is the slope of fluorescence change of the tested samples (enzyme, sample solution, and substrate) during 60 min of measurement. IC50 values were calculated from the nonlinear curve fitting of percentage inhibition against inhibitor concentration using Prism 3.0 software (GraphPad Software, San Diego, CA, USA).

[2] = MTT cytotoxicity assay; format: cell-based; conditions: human, 24 h exposure
Protocol: It is crucial for the BACE1 inhibitors to exert their activities at sub-toxic concentration, and thus their cytotoxicity was assessed in HEK293 cells by 3-[4,5-dimethylthiazol-2-yl]-2,5-diphenyl-tetrazolium bromide (MTT) assays (Table 5). […] Unfortunately, there was no obvious relationship between the structures and their cytotoxicity.
The cytotoxicity was examined by using 3-[4,5-dimethylthiazol-2-yl]-2,5-diphenyl-tetrazolium bromide (MTT) assay. HEK293T cells were seeded with complete DMEM into 96-well plates ([…], 100 µL/well), incubated at 37 °C in a humidified atmosphere with 5% CO2 for 24 h. All the compounds were diluted with the phenol red-free DMEM at a specific concentration. After 24 h of exposure to different concentrations of compound, the supernatant was removed and then 20% (v/v) MTT (5 mg/mL) diluted with fresh culture medium was added into each well and incubated for 4 h. Cells were lysed with 100 μL dimethyl sulfoxide (DMSO) and shaken for 10 min at room temperature. The absorbance in each well was detected at a wavelength of 490 nm using a Universal Microplate Reader (ELX 800 lv, BIO-TEK Instruments, Inc., Winooski, VT, USA).

[3] = HEK293 cells (method text: HEK293T)

T1 sequence (P56817 46-501): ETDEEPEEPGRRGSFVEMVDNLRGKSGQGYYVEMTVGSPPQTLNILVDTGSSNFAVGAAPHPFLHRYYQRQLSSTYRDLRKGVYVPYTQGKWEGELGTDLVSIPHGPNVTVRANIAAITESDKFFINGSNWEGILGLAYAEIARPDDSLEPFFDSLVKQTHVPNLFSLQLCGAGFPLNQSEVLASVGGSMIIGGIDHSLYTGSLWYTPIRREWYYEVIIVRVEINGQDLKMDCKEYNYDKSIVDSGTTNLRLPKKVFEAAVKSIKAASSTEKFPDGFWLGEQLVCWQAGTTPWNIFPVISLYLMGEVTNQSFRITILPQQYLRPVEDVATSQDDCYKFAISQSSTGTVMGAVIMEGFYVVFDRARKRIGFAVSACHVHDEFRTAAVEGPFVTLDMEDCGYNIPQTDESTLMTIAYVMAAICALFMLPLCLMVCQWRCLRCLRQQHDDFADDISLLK

Structure (SMILES)	inhibition at 10 µM [1]	IC50 [1]	IC50 at 24 h [2, 3]	IC50 at 24 h ([2]; HEK293 cells (method text: HEK293T cells))
CC(=O)Oc1ccc(/C=C/C(=O)Oc2cccc(-c3cc(=O)c4c(O)cc(O)cc4o3)c2)cc1 [Compound 4a]	23.9 ± 2.95%			
O=C(/C=C/c1ccc(O)cc1)Oc1cccc(-c2cc(=O)c3c(O)cc(O)cc3o2)c1 [Compound 4b]	14.8 ± 7.35%			
CC(=O)Oc1ccc(/C=C/C(=O)OCCOc2cccc(-c3cc(=O)c4c(O)cc(O)cc4o3)c2)cc1 [Compound 4c]	31.8 ± 5.25%			
O=C(/C=C/c1ccc(O)cc1)OCCOc1cccc(-c2cc(=O)c3c(O)cc(O)cc3o2)c1 [Compound 4d]	39.6 ± 12.5%			
CC(=O)Oc1ccc(/C=C/C(=O)Oc2ccc(-c3cc(=O)c4c(O)cc(O)cc4o3)cc2)cc1 [Compound 4e]	1.9 ± 10.3%			
O=C(/C=C/c1ccc(O)cc1)Oc1ccc(-c2cc(=O)c3c(O)cc(O)cc3o2)cc1 [Compound 4f]	29.4 ± 5.5%			
CC(=O)Oc1ccc(/C=C/C(=O)OCCOc2ccc(-c3cc(=O)c4c(O)cc(O)cc4o3)cc2)cc1 [Compound 4g]	17.1 ± 6%			
O=C(/C=C/c1ccc(O)cc1)OCCOc1ccc(-c2cc(=O)c3c(O)cc(O)cc3o2)cc1 [Compound 4h]	36 ± 4.2%			
O=C(/C=C/c1ccc(O)cc1)OCCOCCOc1ccc(-c2cc(=O)c3c(O)cc(O)cc3o2)cc1 [Compound 4i]	37 ± 8.6%			
O=C(/C=C/c1ccc(O)cc1)OCCOc1c(-c2ccc(O)c(O)c2)oc2cc(O)cc(O)c2c1=O [Compound 4j, 2-((2-(3,4-dihydroxyphenyl)-5,7-dihydroxy-4-oxo-4H-chromen-3-yl)oxy)ethyl(E)-3-(4-hydroxyphenyl)acrylate]	59.2 ± 6.3%	6.78 ± 0.83 µM		
O=C(/C=C/c1ccc(O)cc1)OCCOc1ccc2oc(-c3ccc(O)c(O)c3)cc(=O)c2c1 [Compound 4k]	60.6 ± 5.3%	12.9 ± 1.14 µM		
O=C(/C=C/c1ccc(O)cc1)OCCCOc1cc(O)c2c(=O)cc(-c3ccc(O)c(O)c3)oc2c1 [Compound 5a, (E)-3-((2-(3,4-dihydroxyphenyl)-5-hydroxy-4-oxo-4H-chromen-7-yl)oxy)propyl 3-(4-hydroxyphenyl)acrylate]	81.4 ± 3.8%	5.26 ± 0.72 µM		
O=C(/C=C/c1ccc(O)cc1)OCCCCOc1cc(O)c2c(=O)cc(-c3ccc(O)c(O)c3)oc2c1 [Compound 5b, (E)-4-((2-(3,4-dihydroxyphenyl)-5-hydroxy-4-oxo-4H-chromen-7-yl)oxy)butyl 3-(4-hydroxyphenyl)acrylate]	68.1 ± 5.8%	10.4 ± 1.02 µM		
O=C(/C=C/c1ccc(O)cc1)OCCCCCOc1cc(O)c2c(=O)cc(-c3ccc(O)c(O)c3)oc2c1 [Compound 5c, (E)-5-((2-(3,4-dihydroxyphenyl)-5-hydroxy-4-oxo-4H-chromen-7-yl)oxy)pentyl 3-(4-hydroxyphenyl)acrylate]	62.6 ± 6.4%	20.6 ± 1.44 µM		
O=C(/C=C/c1ccc(O)cc1)OCCCCCCOc1cc(O)c2c(=O)cc(-c3ccc(O)c(O)c3)oc2c1 [Compound 5d, (E)-6-((2-(3,4-dihydroxyphenyl)-5-hydroxy-4-oxo-4H-chromen-7-yl)oxy)hexyl 3-(4-hydroxyphenyl)acrylate]	42.4 ± 3.2%			
O=C(/C=C/c1ccc(O)cc1)OCCCCCCCCOc1cc(O)c2c(=O)cc(-c3ccc(O)c(O)c3)oc2c1 [Compound 5e, (E)-8-((2-(3,4-dihydroxyphenyl)-5-hydroxy-4-oxo-4H-chromen-7-yl)oxy)octyl 3-(4-hydroxyphenyl)acrylate]	36.1 ± 2.6%			
O=C(/C=C/c1ccc(O)cc1)OCCCCCCCCCCOc1cc(O)c2c(=O)cc(-c3ccc(O)c(O)c3)oc2c1 [Compound 5f, (E)-10-((2-(3,4-dihydroxyphenyl)-5-hydroxy-4-oxo-4H-chromen-7-yl)oxy)decyl 3-(4-hydroxyphenyl)acrylate]	58.2 ± 3.3%	27.8 ± 1.34 µM		
O=C(/C=C/c1ccc(O)cc1)Oc1cc(O)c2c(=O)cc(-c3ccc(O)c(O)c3)oc2c1 [Compound 5g]	41.4 ± 4.4%		4.21 µM	
O=C(/C=C/c1ccc(O)cc1)OCCOc1cc(O)c2c(=O)cc(-c3ccccc3)oc2c1 [Compound 6]	20.5 ± 4.4%		28.3 µM	
O=C(/C=C/c1ccc(O)c(O)c1)OCCOc1cc(O)c2c(=O)cc(-c3ccc(O)c(O)c3)oc2c1 [Compound 7d]				16.7 µM
CC(=O)Oc1ccc(/C=C/C(=O)OCCOc2cc(O)c3c(=O)cc(-c4ccc(O)c(O)c4)oc3c2)cc1 [Compound 7q, (E)-2-((2-(3,4-dihydroxyphenyl)-5-hydroxy-4-oxo-4H-chromen-7-yl)oxy)ethyl 3-(4-acetoxyphenyl)acrylate]	25.7 ± 4.6%		> 100 µM	

The next lines start with results.

inhibition at 10 µM [1]	IC50 [1]	Structure (SMILES)	IC50 at 24 h [2, 3]	IC50 at 24 h ([2]; HEK293 cells (method text: HEK293T cells))
57.5 ± 7.5%	2.49 ± 0.32 µM	O=C(C=Cc1ccccc1)OCCOc1cc(O)c2c(=O)cc(-c3ccc(O)c(O)c3)oc2c1 [Compound 7a, 2-((2-(3,4-dihydroxyphenyl)-5-hydroxy-4-oxo-4H-chromen-7-yl)oxy)ethyl cinnamate]	> 100 µM	
28.5 ± 7.1%		O=C(/C=C/c1ccc(F)cc1)OCCOc1cc(O)c2c(=O)cc(-c3ccc(O)c(O)c3)oc2c1 [Compound 7e, (E)-2-((2-(3,4-dihydroxyphenyl)-5-hydroxy-4-oxo-4H-chromen-7-yl)oxy)ethyl 3-(4-fluorophenyl)acrylate]	16.8 µM	
21.3 ± 7.1%		O=C(/C=C/c1ccc(Cl)cc1)OCCOc1cc(O)c2c(=O)cc(-c3ccc(O)c(O)c3)oc2c1 [Compound 7f, (E)-2-((2-(3,4-dihydroxyphenyl)-5-hydroxy-4-oxo-4H-chromen-7-yl)oxy)ethyl 3-(4-chlorophenyl)acrylate]	9.97 µM	
73.9 ± 7.1%	0.96 ± 1.55 µM	O=C(/C=C/c1ccc([N+](=O)[O-])cc1)OCCOc1cc(O)c2c(=O)cc(-c3ccc(O)c(O)c3)oc2c1 [Compound 7g, (E)-2-((2-(3,4-dihydroxyphenyl)-5-hydroxy-4-oxo-4H-chromen-7-yl)oxy)ethyl 3-(4-nitrophenyl)acrylate]	21.8 µM	
53.8 ± 4.4%	6.58 ± 1.16 µM	CN(C)c1ccc(/C=C/C(=O)OCCOc2cc(O)c3c(=O)cc(-c4ccc(O)c(O)c4)oc3c2)cc1 [Compound 7h, (E)-2-((2-(3,4-dihydroxyphenyl)-5-hydroxy-4-oxo-4H-chromen-7-yl)oxy)ethyl 3-(4-(dimethylamino)phenyl)acrylate]	> 100 µM	
37.6 ± 4.4%		CC(C)(C)c1ccc(/C=C/C(=O)OCCOc2cc(O)c3c(=O)cc(-c4ccc(O)c(O)c4)oc3c2)cc1 [Compound 7j, (E)-2-((2-(3,4-dihydroxyphenyl)-5-hydroxy-4-oxo-4H-chromen-7-yl)oxy)ethyl 3-(4-(tert-butyl)phenyl)acrylate]	20.3 µM	
59.5 ± 7.1%	0.37 ± 0.25 µM	O=C(/C=C/c1ccoc1)OCCOc1cc(O)c2c(=O)cc(-c3ccc(O)c(O)c3)oc2c1 [Compound 7l, (E)-2-((2-(3,4-dihydroxyphenyl)-5-hydroxy-4-oxo-4H-chromen-7-yl)oxy)ethyl 3-(furan-3-yl)acrylate]	9.51 µM	
22.2 ± 7.1%		O=C(/C=C/C1CCCCC1)OCCOc1cc(O)c2c(=O)cc(-c3ccc(O)c(O)c3)oc2c1 [Compound 7m, (E)-2-((2-(3,4-dihydroxyphenyl)-5-hydroxy-4-oxo-4H-chromen-7-yl)oxy)ethyl 3-cyclohexylacrylate]	14.4 µM	
51.9 ± 1.9%		O=C(OCCOc1cc(O)c2c(=O)cc(-c3ccc(O)c(O)c3)oc2c1)c1ccc(O)cc1 [Compound 7o, 2-((2-(3,4-dihydroxyphenyl)-5-hydroxy-4-oxo-4H-chromen-7-yl)oxy)ethyl 4-hydroxybenzoate]	10.3 µM	
56.7 ± 4.4%	4.39 ± 0.34 µM	O=C(CCc1ccc(O)cc1)OCCOc1cc(O)c2c(=O)cc(-c3ccc(O)c(O)c3)oc2c1 [Compound 7p, 2-((2-(3,4-dihydroxyphenyl)-5-hydroxy-4-oxo-4H-chromen-7-yl)oxy)ethyl 3-(4-hydroxyphenyl)propanoate]	90 µM	

Reference: publication PMC6982702, “Extensive Structure Modification on Luteolin-Cinnamic Acid Conjugates Leading to BACE1 Inhibitors with Optimal Pharmacological Properties” (Molecules, 2019)
